Measurements published in patent US20070197591A1, “USE OF PALIPERIDONE FOR THE TREATMENT OF A MENTAL DISORDER IN A PSYCHIATRIC PATIENT WITH REDUCED HEPATIC FUNCTION” (priority 2005, published 2007).

Key:
[1] = Plasma protein binding / unbound fraction of paliperidone and its enantiomers; assay type: in vitro ADME, human
Excerpt: Objectives: The primary objective of this study was to investigate the single-dose pharmacokinetics of immediate-release (IR) paliperidone, after oral administration, in subjects having moderate hepatic impairment (“hepatically-impaired subjects”) compared with subjects having normal hepatic function (“healthy subjects”). The secondary objective was to document the plasma protein binding and disposition of the enantiomers of paliperidone. In addition, the tolerability and safety profile of IR paliperidone was compared between hepatically impaired subjects and healthy subjects. Criteria for Evaluation: Pharmacokinetics: Plasma and urine concentrations of the paliperidone enantiomers (+) R078543 and (−) R078544 were determined using an LC-MS/MS method. Concentrations of paliperidone were calculated as the sum of the enantiomer concentrations. In addition, serum and urine concentrations of creatinine were determined for the calculation of CLCR. The protein binding and unbound fraction was determined for the 2 paliperidone enantiomers. The unbound fraction for paliperidone was calculated.

clinical = experiment: clinical; design: species or system human; settings: human, in vivo
Excerpt: Objectives: to investigate the metabolic pathways of paliperidone and excretion of paliperidone and its metabolites in healthy adult male subjects, both CYP2D6 poor and extensive metabolizers, after administration of a single 1-mg oral dose of ^14C-paliperidone. In addition, to evaluate the safety and tolerability of paliperidone, as well as the relationship between genotypes (CYP2D6, CYP3A4, CYP3A5, UGT1A1, and UGT1A6) and exposure to paliperidone and its metabolites.
Methodology: Single-center, single-dose open-label study of the absorption, metabolism, and excretion (AME) of paliperidone in healthy men (3 extensive and 3 poor metabolizers based on CPY2D6 phenotype). […] Each subject received a single oral dose of ^14C-paliperidone with total radioactivity below […] (16 μCi). Blood samples for plasma pharmacokinetic profile were obtained immediately before study drug administration and 0.5, 1, 1.5, 3, 6, 12, 16, 36, 48, 72, 96, 120, 144 and 168 hours postdose. Blood samples were obtained 2, 4, 8, and 24 hours postdose for determination of ^14C in whole blood. Samples for determination of serum creatinine were obtained 2, 4, 8, and 24 hours postdose. Urine was collected immediately prior to drug administration and from 0-4, 4-8, 8-12, 12-16, 16-24, 24-36, 36-48, 48-72, 96-120, 120-144, and 144-168 hours after study drug administration. Fecal samples were colleted per each stool, once before study drug administration and in the period from 0-168 hours after study drug administration. Collections of urine and feces (per 24 hours) were to continue beyond 168 hours, to a maximum of 336 hours (Day 15) for subjects who excrete radioactivity slowly (2 latest 24-hour urine collections each >2% of total radioactive dose) or have <7 feces stool samples over the 0 to 168-hour period. ^14C radioactivity was measured in plasma, urine, and feces. Aliquots of the 0- through 24-hour urine collections were analyzed for cretinine. Plasma concentrations of paliperidone and risperidone were determined by means of a validated LC-MS/MS method. The ^14C-labeled moiety in plasma and urine was determined by liquid scintillation counting. For all plasma samples, the lower limits of quantification for paliperidone and risperidone were 0.100 ng/mL. For all plasma and urine samples the lower limits of quantification for ^14C-palieridone was 72 dpm/mL (=2.0 n g-eq/mL).
Number of Subjects (Planned and Analyzed): Six healthy men, 3 extensive and 3 poor metabolizers based on CYP2D6 phenotype were to participate in the study. Five subjects, 3 extensive and 2 poor metabolizers, received a single dose of ^14C-paliperidone, completed the study (i.e., completed all assessments through Day 8) and were considered valuable for safety (the Safety Analysis Set), as well as for pharmacokinetics.
Test Product, Dose and Mode of Administration Batch No.: Single oral 0.988-mg dose of ^14C-paliperidone, oral solution (aqueous formulation at a final concentration of 0.0984 mg/mL). Batch No.: unlabeled paliperidone oral solution: ZR076477EIA031 (manufacturing date: 23 Apr. 2003, retest date: 23 Oct. 2004): ^14C-paliperidone: 1763 (expiration date: not applicable)
Criteria for Evaluation: Pharmacokinetics: Plasma paliperidone. ^14C radioactivity and metabolite profiles were determined. Plasma Cmax, tmax, AUClast, AUC24, AUC∞, λZ, t1/2term, CL/F of ^14C and paliperidone were estimated by non-compartmental analysis. Based on the individual urine excretion data and on the serum creatinine concentrations, Ae, Ae, % dose, CLR, CLR,24h and CLer and paliperidone and CLGFR, and CLact of paliperidone were estimated. The excretion half-life of ^14C in urine was also estimated based on excretion rate-time profiles.
Statistical Methods: Pharmacokinetics: Plasma concentrations of ^14C and paliperdone as well as estimates for pharmacokinetic parameters were listed and graphically presented, and the excretion analysis of total radioactivity in plasma, urine and feces were summarized. […]

[2] = Safety and tolerability, single oral 1-mg ^14C-paliperidone in healthy men; assay type: in vivo, human
Method: Safety: Evaluation was based on the incidence, type, and severity of all treatment-emergent adverse events, and on change from screening to the end of the study in clinical laboratory results, vital sign measurements, and postural changes in blood pressure and heart rate.
Safety: The number of subjects with adverse events was summarized. Summary statistics were calculated for clinical laboratory values. Other safety data were listed by individual sect. Changes in blood pressure and heart rate measurements were also presented graphically.

[3] = Hepatically-Impaired Subjects (n = 10; paliperidone n = 8)

Compound | Unbound Fraction ([1]; Healthy Subjects (n = 10)) | Unbound Fraction [1, 3] | AUC∞ (clinical) | deaths, serious adverse events ([2]; 5 healthy men, single oral 1-mg dose) | changes in laboratory test results ([2]; in vivo, po) | overall safety and tolerability ([2]; in vivo, po) | subjects with treatment-emergent adverse events ([2]; in vivo, po)
Cc1nc2n(c(=O)c1CCN1CCC(c3noc4cc(F)ccc34)CC1)CCC[C@H]2O [(+) R078543] | 0.215 ± 0.0469 | 0.306 ± 0.0687 | – | – | – | – | –
^14C-paliperidone | – | – | 175 ng-eq.h/mL | no deaths, no serious adverse events | no clinically relevant changes | safe and well tolerated | Two of the 5 subjects
Cc1nc2n(c(=O)c1CCN1CCC(c3noc4cc(F)ccc34)CC1)CCCC2O (single isomer, unassigned; (-)) [(−) R078544] | 0.385 ± 0.0416 | 0.457 ± 0.0504 | – | – | – | – | –
